From US12139492B2 (Endotarget Inc., priority 2021, dated 2024)
pIC50: −log10 of the molar value.

Columns and labels:
Format in all cases: cell-based
Mino cells = experiment: Antiproliferative effect, MTS cell viability assay, Mino cells; conditions: Homo sapiens, MINO, Mino mantle cell lymphoma cells; read-out: IC50 (anti-proliferation) Mino cells
Outline: (§1)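 Steps: seed B-cell lymphoma line; add compound at 0, 0.001, 0.01, 0.1, 1 or 10 μM; incubate 72 h; add MTS and read reduced tetrazolium (formazan) absorbance at 490 nm.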

JeKo-1 cells = experiment: Antiproliferative effect, MTS cell viability assay, JeKo-1 cells; conditions: Homo sapiens; JeKo-1 mantle cell lymphoma cells; read-out: IC50 (anti-proliferation) JeKO-1 cells
Outline: as §1

BTK = BTK (Homo sapiens, UniProt Q06187); experiment: BTK degradation, DC50 and Dmax of Table 1 (cell line not given); design: endogenous in cells; conditions: for DC50: concentration giving 50% reduction of BTK expression level
Chain of BTK (Q06187 whole entry): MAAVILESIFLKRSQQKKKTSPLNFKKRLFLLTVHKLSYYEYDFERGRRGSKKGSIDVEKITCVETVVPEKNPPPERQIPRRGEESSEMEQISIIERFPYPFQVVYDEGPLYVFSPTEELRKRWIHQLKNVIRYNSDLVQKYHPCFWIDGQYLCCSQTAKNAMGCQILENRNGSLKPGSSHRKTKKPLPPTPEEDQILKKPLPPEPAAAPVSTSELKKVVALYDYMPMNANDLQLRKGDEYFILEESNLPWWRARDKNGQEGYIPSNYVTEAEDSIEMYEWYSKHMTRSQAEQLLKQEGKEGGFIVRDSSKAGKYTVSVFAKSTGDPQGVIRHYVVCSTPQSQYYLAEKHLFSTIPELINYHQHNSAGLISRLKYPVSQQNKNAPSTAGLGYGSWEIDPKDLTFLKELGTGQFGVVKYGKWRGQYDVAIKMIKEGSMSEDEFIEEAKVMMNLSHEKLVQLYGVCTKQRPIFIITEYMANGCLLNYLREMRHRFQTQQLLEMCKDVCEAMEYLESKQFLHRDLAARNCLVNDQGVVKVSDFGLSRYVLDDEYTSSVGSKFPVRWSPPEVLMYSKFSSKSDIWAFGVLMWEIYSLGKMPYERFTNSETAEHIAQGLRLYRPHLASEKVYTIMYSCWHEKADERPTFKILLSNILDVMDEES

Row | SMILES | Dmax (BTK) [%] | DC50 (BTK) [µM] | pIC50 (Mino cells) | pIC50 (JeKo-1 cells)
1 | Nc1ncnc2c1c(-c1ccc(Oc3ccccc3)cc1)nn2C1CCCN(CCOCCOCCC2CCN(c3ccc4c(c3)CN(C3CCC(=O)NC3=O)C4=O)CC2)C1 (stereo not shown) [Compound 22, 3-(5-(4-(2-(2-(2-(3-(4-amino-3-(4-phenoxyphenyl)-1H-pyrazolo[3,4-d]pyrimidin-1-yl)piperidin-1-yl)ethoxy)ethoxy)ethyl)piperidin-1-yl)-1-oxoisoindolin-2-yl)piperidine-2,6-dione] | > 90 | < 0.01 | > 6.00 | 5.00 to 6.00
2 | Nc1ncnc2c1c(-c1ccc(Oc3ccccc3)cc1)nn2C1CCCN(CCOCCC2CCN(c3ccc4c(c3)C(=O)N(C3CCC(=O)NC3=O)C4=O)CC2)C1 (stereo not shown) [Compound 23, 5-(4-(2-(2-(3-(4-amino-3-(4-phenoxyphenyl)-1H-pyrazolo[3,4-d]pyrimidin-1-yl)piperidin-1-yl)ethoxy)ethyl)piperidin-1-yl)-2-(2,6-dioxopiperidin-3-yl)isoindoline-1,3-dione] | > 75 | > 0.05 | 5.00 to 6.00 | 5.00 to 6.00
3 | Nc1ncnc2c1c(-c1ccc(Oc3ccccc3)cc1)nn2[C@@H]1CCCN(C(=O)N2CCN(c3ccc4c(c3)CN(C3CCC(=O)NC3=O)C4=O)CC2)C1 (stereo partly drawn) [Compound 46, 3-(5-(4-((R)-3-(4-amino-3-(4-phenoxyphenyl)-1H-pyrazolo[3,4-d]pyrimidin-1-yl)piperidine-1-carbonyl)piperazin-1-yl)-1-oxoisoindolin-2-yl)piperidine-2,6-dione] | > 50 | > 0.05 | < 5.00 | < 5.00
4 | Nc1ncnc2c1c(-c1ccc(Oc3ccccc3)cc1)nn2[C@@H]1CCCN(C(=O)N2CCC(c3ccc4c(c3)C(=O)N(C3CCC(=O)NC3=O)C4=O)CC2)C1 (stereo partly drawn) [Compound 47, 5-(1-((R)-3-(4-amino-3-(4-phenoxyphenyl)-1H-pyrazolo[3,4-d]pyrimidin-1-yl)piperidine-1-carbonyl)piperidin-4-yl)-2-(2,6-dioxopiperidin-3-yl)isoindoline-1,3-dione] | > 50 | > 0.05 | < 5.00 | < 5.00
5 | Nc1ncnc2c1c(-c1ccc(Oc3ccccc3)cc1)nn2[C@@H]1CCCN(C(=O)N2CCC(c3ccc4c(c3)CN(C3CCC(=O)NC3=O)C4=O)CC2)C1 (stereo partly drawn) [Compound 48, 3-(5-(1-((R)-3-(4-amino-3-(4-phenoxyphenyl)-1H-pyrazolo[3,4-d]pyrimidin-1-yl)piperidine-1-carbonyl)piperidin-4-yl)-1-oxoisoindolin-2-yl)piperidine-2,6-dione] | > 50 | > 0.05 | < 5.00 | < 5.00
6 | Nc1ncnc2c1c(-c1ccc(Oc3ccccc3)cc1)nn2[C@@H]1CCCN(C(=O)N2CCC(C3CCN(c4ccc5c(c4)CN(C4CCC(=O)NC4=O)C5=O)CC3)CC2)C1 (stereo partly drawn) [Compound 50, 3-(5-(1′-((R)-3-(4-amino-3-(4-phenoxyphenyl)-1H-pyrazolo[3,4-d]pyrimidin-1-yl)piperidine-1-carbonyl)-[4,4′-bipiperidin]-1-yl)-1-oxoisoindolin-2-yl)piperidine-2,6-dione] | > 90 | 0.01 to 0.05 | 5.00 to 6.00 | 5.00 to 6.00
7 | Nc1ncnc2c1c(-c1ccc(Oc3ccccc3)cc1)nn2[C@@H]1CCCN(C(=O)N2CCC(N3CCC(c4ccc5c(c4)C(=O)N(C4CCC(=O)NC4=O)C5=O)CC3)CC2)C1 (stereo partly drawn) [Compound 53, 5-(1′-((R)-3-(4-amino-3-(4-phenoxyphenyl)-1H-pyrazolo[3,4-d]pyrimidin-1-yl)piperidine-1-carbonyl)-[1,4′-bipiperidin]-4-yl)-2-(2,6-dioxopiperidin-3-yl)isoindoline-1,3-dione] | > 90 | < 0.01 | > 6.00 | 5.00 to 6.00
8 | Nc1ncnc2c1c(-c1ccc(Oc3ccccc3)cc1)nn2[C@@H]1CCCN(C(=O)N2CCC(N3CCC(c4ccc5c(c4)CN(C4CCC(=O)NC4=O)C5=O)CC3)CC2)C1 (stereo partly drawn) [Compound 54, 3-(5-(1′-((R)-3-(4-amino-3-(4-phenoxyphenyl)-1H-pyrazolo[3,4-d]pyrimidin-1-yl)piperidine-1-carbonyl)-[1,4′-bipiperidin]-4-yl)-1-oxoisoindolin-2-yl)piperidine-2,6-dione] | > 90 | < 0.01 | > 6.00 | > 6.00

Now from value to molecule, other results behind:

Row | Dmax (BTK) [%] | DC50 (BTK) [µM] | SMILES | pIC50 (Mino cells) | pIC50 (JeKo-1 cells)
9 | > 75 | > 0.05 | Nc1ncnc2c1c(-c1ccc(Oc3ccccc3)cc1)nn2[C@@H]1CCCN(CC2CCN(C(=O)N3CCN(c4ccc5c(c4)CN(C4CCC(=O)NC4=O)C5=O)CC3)CC2)C1 (stereo partly drawn) [Compound 26, 3-(5-(4-(4-(((R)-3-(4-amino-3-(4-phenoxyphenyl)-1H-pyrazolo[3,4-d]pyrimidin-1-yl)piperidin-1-yl)methyl)piperidine-1-carbonyl)piperazin-1-yl)-1-oxoisoindolin-2-yl)piperidine-2,6-dione] | 5.00 to 6.00 | 5.00 to 6.00
10 | > 90 | 0.01 to 0.05 | Nc1ncnc2c1c(-c1ccc(Oc3ccccc3)cc1)nn2[C@@H]1CCCN(CC2CCN(C(=O)N3CCC(C4CCN(c5ccc6c(c5)CN(C5CCC(=O)NC5=O)C6=O)CC4)CC3)CC2)C1 (stereo partly drawn) [Compound 30, 3-(5-(1′-(4-(((R)-3-(4-amino-3-(4-phenoxyphenyl)-1H-pyrazolo[3,4-d]pyrimidin-1-yl)piperidin-1-yl)methyl)piperidine-1-carbonyl)-[4,4′-bipiperidin]-1-yl)-1-oxoisoindolin-2-yl)piperidine-2,6-dione] | 5.00 to 6.00 | 5.00 to 6.00
11 | > 90 | 0.01 to 0.05 | Nc1ncnc2c1c(-c1ccc(Oc3ccccc3)cc1)nn2[C@@H]1CCCN(CC2CCN(C(=O)N3CCC(CN4CCN(c5ccc6c(c5)CN(C5CCC(=O)NC5=O)C6=O)CC4)CC3)CC2)C1 (stereo partly drawn) [Compound 32, 3-(5-(4-((1-(4-(((R)-3-(4-amino-3-(4-phenoxyphenyl)-1H-pyrazolo[3,4-d]pyrimidin-1-yl)piperidin-1-yl)methyl)piperidine-1-carbonyl)piperidin-4-yl)methyl)piperazin-1-yl)-1-oxoisoindolin-2-yl)piperidine-2,6-dione] | 5.00 to 6.00 | 5.00 to 6.00
12 | > 90 | > 0.05 | Nc1ncnc2c1c(-c1ccc(Oc3ccccc3)cc1)nn2[C@@H]1CCCN(CC2CCN(C(=O)N3CCC(CCN4CCN(c5ccc6c(c5)CN(C5CCC(=O)NC5=O)C6=O)CC4)CC3)CC2)C1 (stereo partly drawn) [Compound 34, 3-(5-(4-(2-(1-(4-(((R)-3-(4-amino-3-(4-phenoxyphenyl)-1H-pyrazolo[3,4-d]pyrimidin-1-yl)piperidin-1-yl)methyl)piperidine-1-carbonyl)piperidin-4-yl)ethyl)piperazin-1-yl)-1-oxoisoindolin-2-yl)piperidine-2,6-dione] | 5.00 to 6.00 | 5.00 to 6.00
13 | > 90 | 0.01 to 0.05 | Nc1ncnc2c1c(-c1ccc(Oc3ccccc3)cc1)nn2C1CCN(CC2CCN(C(=O)N3CCC(N4CCN(c5ccc6c(c5)CN(C5CCC(=O)NC5=O)C6=O)CC4)CC3)CC2)CC1 (stereo not shown) [Compound 38, 3-(5-(4-(1-(4-((4-(4-amino-3-(4-phenoxyphenyl)-1H-pyrazolo[3,4-d]pyrimidin-1-yl)piperidin-1-yl)methyl)piperidine-1-carbonyl)piperidin-4-yl)piperazin-1-yl)-1-oxoisoindolin-2-yl)piperidine-2,6-dione] | > 6.00 | > 6.00
14 | > 90 | > 0.05 | Nc1ncnc2c1c(-c1ccc(Oc3ccccc3)cc1)nn2C1CCN(CC2CCN(C(=O)N3CCC(C4CCN(c5ccc6c(c5)CN(C5CCC(=O)NC5=O)C6=O)CC4)CC3)CC2)CC1 (stereo not shown) [Compound 40, 3-(5-(1′-(4-((4-(4-amino-3-(4-phenoxyphenyl)-1H-pyrazolo[3,4-d]pyrimidin-1-yl)piperidin-1-yl)methyl)piperidine-1-carbonyl)-[4,4′-bipiperidin]-1-yl)-1-oxoisoindolin-2-yl)piperidine-2,6-dione] | 5.00 to 6.00 | 5.00 to 6.00
15 | > 90 | 0.01 to 0.05 | Nc1ncnc2c1c(-c1ccc(Oc3ccccc3)cc1)nn2C1CCN(CC2CCN(C(=O)N3CCC(CN4CCN(c5ccc6c(c5)CN(C5CCC(=O)NC5=O)C6=O)CC4)CC3)CC2)CC1 (stereo not shown) [Compound 42, 3-(5-(4-((1-(4-((4-(4-amino-3-(4-phenoxyphenyl)-1H-pyrazolo[3,4-d]pyrimidin-1-yl)piperidin-1-yl)methyl)piperidine-1-carbonyl)piperidin-4-yl)methyl)piperazin-1-yl)-1-oxoisoindolin-2-yl)piperidine-2,6 dione] | > 6.00 | > 6.00
16 | > 90 |  | Nc1ncnc2c1c(-c1ccc(Oc3ccccc3)cc1)nn2C1CCN(CC2CCN(C(=O)N3CCC(CCN4CCN(c5ccc6c(c5)C(=O)N(C5CCC(=O)NC5=O)C6=O)CC4)CC3)CC2)CC1 (stereo not shown) [Compound 43, 5-(4-(2-(1-(4-((4-(4-amino-3-(4-phenoxyphenyl)-1H-pyrazolo[3,4-d]pyrimidin-1-yl)piperidin-1-yl)methyl)piperidine-1-carbonyl)piperidin-4-yl)ethyl)piperazin-1-yl)-2-(2,6-dioxopiperidin-3-yl)isoindoline-1,3-dione] | 5.00 to 6.00 | 5.00 to 6.00
17 | > 90 | 0.01 to 0.05 | Nc1ncnc2c1c(-c1ccc(Oc3ccccc3)cc1)nn2C1CCN(CC2CCN(C(=O)N3CCC(CCN4CCN(c5ccc6c(c5)CN(C5CCC(=O)NC5=O)C6=O)CC4)CC3)CC2)CC1 (stereo not shown) [Compound 44, 3-(5-(4-(2-(1-(4-((4-(4-amino-3-(4-phenoxyphenyl)-1H-pyrazolo[3,4-d]pyrimidin-1-yl)piperidin-1-yl)methyl)piperidine-1-carbonyl)piperidin-4-yl)ethyl)piperazin-1-yl)-1-oxoisoindolin-2-yl)piperidine-2,6-dione] | 5.00 to 6.00 | 5.00 to 6.00
